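Following 48 hours of exposure in 96-well plates, responses at five concentrations were used to interpolate endpoints linearly. GI50: concentration for 50% inhibition of growth.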 Calls of active or inactive are those of the source. Cut-off read from the data, not from the text of the source: active = GI50 up to about 1.1 µM and inactive = higher.
How the values were obtained:
Assay in all cases: NCI anticancer screen, dose series, 48 h
[1] = tested on: MCF7
[2] = tested on: MDA-N
[3] = tested on: DU-145
[4] = tested on: NCI-H460
[5] = tested on: MDA-MB-231
[6] = tested on: SK-OV-3
[7] = tested on: NCI-H23
[8] = tested on: SW-620
[9] = tested on: T47D
[10] = tested on: SF-268
[11] = tested on: NCI-H522
[12] = tested on: EKVX
[13] = tested on: SF-295
[14] = tested on: UO-31
[15] = tested on: HCT-15
[16] = tested on: MDA-MB-435
[17] = tested on: OVCAR-4
[18] = tested on: Malme-3M

| Compound | GI50 [1] | GI50 [2] | GI50 [3] | GI50 [4] | GI50 [5] | GI50 [6] | GI50 [7] | GI50 [8] | GI50 [9] | GI50 [10] | GI50 [11] | GI50 [12] | GI50 [13] | GI50 [14] | GI50 [15] [µM] | GI50 [16] | GI50 [17] | GI50 [18] |
| --- | --- | --- | --- | --- | --- | --- | --- | --- | --- | --- | --- | --- | --- | --- | --- | --- | --- | --- |
| CN(O)C(=O)CCC(NC(=O)CCC(N)C(=O)O)C(=O)NCC(=O)O (stereo not given) | > 100 µM (inactive) | > 100 µM (inactive) | > 100 µM (inactive) | > 100 µM (inactive) | > 100 µM (inactive) | > 100 µM (inactive) | > 100 µM (inactive) | > 100 µM (inactive) | > 100 µM (inactive) | > 100 µM (inactive) | > 100 µM (inactive) | > 100 µM (inactive) | > 100 µM (inactive) | > 100 µM (inactive) | > 100 | > 100 µM (inactive) | > 100 µM (inactive) |  |
| CC(C)(C)OC(=O)NC(Cc1ccc(OC(C)(C)C)cc1)C(=O)N[C@H]1CCC[C@H]1C(=O)NC(Cc1ccccc1)C(=O)N1CCCC1C(N)=O (stereo not given in full) | > 100 µM (inactive) | > 100 µM (inactive) | > 100 µM (inactive) | > 100 µM (inactive) | > 100 µM (inactive) | > 100 µM (inactive) | > 100 µM (inactive) | > 100 µM (inactive) | > 100 µM (inactive) | > 100 µM (inactive) | > 100 µM (inactive) | > 100 µM (inactive) | > 100 µM (inactive) | > 100 µM (inactive) | > 100 | > 100 µM (inactive) | > 100 µM (inactive) | > 100 µM (inactive) |
| CCOc1c(OC)cc(-c2nc3n(n2)C(=O)C(CC)S3)cc1OC (stereo not given) | > 10 µM (inactive) | > 10 µM (inactive) | > 10 µM (inactive) | > 10 µM (inactive) | > 10 µM (inactive) | > 10 µM (inactive) | > 10 µM (inactive) | > 10 µM (inactive) | > 10 µM (inactive) | > 10 µM (inactive) | > 10 µM (inactive) | > 10 µM (inactive) | > 10 µM (inactive) |  | > 10 | > 10 µM (inactive) | > 10 µM (inactive) | > 10 µM (inactive) |
| CNc1ncnc2c1cnn2Cc1cn(COCC(O)CO)nn1 (stereo not given) | > 100 µM (inactive) | > 100 µM (inactive) | > 100 µM (inactive) |  | > 100 µM (inactive) | > 100 µM (inactive) | > 100 µM (inactive) | > 100 µM (inactive) | > 100 µM (inactive) | 4.97 µM (inactive) |  | > 100 µM (inactive) | > 100 µM (inactive) | > 100 µM (inactive) | > 100 | > 100 µM (inactive) | > 100 µM (inactive) |  |
| Cc1ccc(O)c(C(c2ccc(C(c3cc(C)ccc3O)c3cc(C)ccc3O)cc2)c2cc(C)ccc2O)c1 | 2.31 µM (inactive) | 1.52 µM (inactive) | 1.74 µM (inactive) |  | 1.25 µM (inactive) | 1.68 µM (inactive) | 1.79 µM (inactive) | 1.82 µM (inactive) | 1.75 µM (inactive) | 1.62 µM (inactive) | 2.08 µM (inactive) | 1.87 µM (inactive) | 2.06 µM (inactive) | 1.85 µM (inactive) | 1.8 | 1.7 µM (inactive) | 1.79 µM (inactive) | 1.88 µM (inactive) |
| CCOC(=O)COc1ccc2c(C)cc(=O)oc2c1 | > 100 µM (inactive) | > 100 µM (inactive) | > 100 µM (inactive) | 45.8 µM (inactive) | > 100 µM (inactive) |  | > 100 µM (inactive) | > 100 µM (inactive) | > 100 µM (inactive) | > 100 µM (inactive) | > 100 µM (inactive) | > 100 µM (inactive) | > 100 µM (inactive) | > 100 µM (inactive) | > 100 | > 100 µM (inactive) | > 100 µM (inactive) | > 100 µM (inactive) |
| CC1CN(c2cc3c(cc2F)c(=O)c(C(=O)O)cn3-c2ccc(N3CCN(C)CC3)cn2)CC(C)N1 (stereo not given) | 98.9 µM (inactive) | > 100 µM (inactive) | > 100 µM (inactive) | > 100 µM (inactive) | > 100 µM (inactive) | > 100 µM (inactive) | > 100 µM (inactive) | 98.4 µM (inactive) | > 100 µM (inactive) | > 100 µM (inactive) |  | > 100 µM (inactive) | > 100 µM (inactive) | > 100 µM (inactive) | > 100 | > 100 µM (inactive) | > 100 µM (inactive) | > 100 µM (inactive) |
| O=C1c2ccccc2-c2nnc3c(c21)-c1ccccc1C3 | 64.6 µM (inactive) | > 100 µM (inactive) | > 100 µM (inactive) | 29.2 µM (inactive) | > 100 µM (inactive) | > 100 µM (inactive) | > 100 µM (inactive) | 53.2 µM (inactive) | > 100 µM (inactive) | > 100 µM (inactive) | 48.6 µM (inactive) | 18.5 µM (inactive) | > 100 µM (inactive) | 23.2 µM (inactive) | 39.4 | > 100 µM (inactive) |  | > 100 µM (inactive) |
| O=C1/C(=C2\Sc3c(ccc(Cl)c3Cl)C2=O)Sc2c1ccc(Cl)c2Cl | > 100 µM (inactive) | > 100 µM (inactive) | > 100 µM (inactive) | > 100 µM (inactive) | > 100 µM (inactive) |  | > 100 µM (inactive) | > 100 µM (inactive) | > 100 µM (inactive) | > 100 µM (inactive) | > 100 µM (inactive) | > 100 µM (inactive) | 33.1 µM (inactive) | > 100 µM (inactive) | > 100 | > 100 µM (inactive) | > 100 µM (inactive) | > 100 µM (inactive) |
| COC(OC)[C@@H]1OC[C@H](n2cnc3c(N)ncnc32)[C@H]1O |  | > 100 µM (inactive) | > 100 µM (inactive) | > 100 µM (inactive) | > 100 µM (inactive) | > 100 µM (inactive) | > 100 µM (inactive) | > 100 µM (inactive) | > 100 µM (inactive) | > 100 µM (inactive) |  | > 100 µM (inactive) | > 100 µM (inactive) | > 100 µM (inactive) | > 100 | > 100 µM (inactive) | > 100 µM (inactive) |  |
| CC1(C)CC(=O)c2c(nc3c(ccc4ccccc43)c2-c2ccc(NC(=O)CCCC(=O)Nc3ccc(-c4c5c(nc6c4ccc4ccccc46)CC(C)(C)CC5=O)cc3)cc2)C1 | > 100 µM (inactive) | > 100 µM (inactive) | > 100 µM (inactive) | > 100 µM (inactive) | > 100 µM (inactive) | > 100 µM (inactive) |  | > 100 µM (inactive) | > 100 µM (inactive) | > 100 µM (inactive) | > 100 µM (inactive) | > 100 µM (inactive) | > 100 µM (inactive) | > 100 µM (inactive) | 46.5 | > 100 µM (inactive) |  |  |
| Cc1cc2c([N+](=O)[O-])cc3c(c2o1)C(=O)C=CC3=O | 4.18 µM (inactive) | 14.5 µM (inactive) | 7.93 µM (inactive) | 18.5 µM (inactive) | 18.7 µM (inactive) | 29.5 µM (inactive) | 17.7 µM (inactive) | 2.43 µM (inactive) | 3.12 µM (inactive) | 12.4 µM (inactive) | 1.52 µM (inactive) | 3.37 µM (inactive) | 8.13 µM (inactive) | 1.67 µM (inactive) | 15 | 3.2 µM (inactive) | 16.1 µM (inactive) |  |
| CC(C)(C)NC(=O)/C(=C\Sc1ccccc1)c1ccccc1 | > 73.8 µM (inactive) | 71.1 µM (inactive) | > 100 µM (inactive) | > 100 µM (inactive) | > 95.5 µM (inactive) | > 100 µM (inactive) | > 41.7 µM (inactive) | > 100 µM (inactive) | 56.1 µM (inactive) |  | 6.15 µM (inactive) | > 74.6 µM (inactive) | > 100 µM (inactive) | > 100 µM (inactive) | > 48.5 | > 82.8 µM (inactive) | > 68.4 µM (inactive) | > 100 µM (inactive) |
| CCSC1=CC2(O)N(CCc3ccc(OC)c(OC)c3)C(=O)CC2(C(=O)OC)CC1=O (stereo not given) | 19.7 µM (inactive) | 31.3 µM (inactive) | 18.2 µM (inactive) |  | 18.3 µM (inactive) | 86.9 µM (inactive) | 18.4 µM (inactive) | 25.2 µM (inactive) | 21 µM (inactive) |  |  | 40.1 µM (inactive) | > 100 µM (inactive) | 18.5 µM (inactive) | 25.8 | 21.2 µM (inactive) | 35.8 µM (inactive) |  |
| CC1(C)OC(=O)CC12CCN(Cc1ccccc1)CC2 | > 100 µM (inactive) | > 100 µM (inactive) | > 100 µM (inactive) |  | > 100 µM (inactive) | > 100 µM (inactive) | > 100 µM (inactive) |  | > 100 µM (inactive) | > 100 µM (inactive) | > 100 µM (inactive) | > 100 µM (inactive) | > 100 µM (inactive) | > 100 µM (inactive) | > 100 | > 100 µM (inactive) | > 100 µM (inactive) | > 100 µM (inactive) |
| O=c1cc(-c2ccc(O)cc2)oc2cc(O[C@@H]3O[C@H](CO)[C@@H](O)[C@H](O)[C@H]3O)cc(O)c12 [APIGETRIN] | > 100 µM (inactive) | 46 µM (inactive) | 58.3 µM (inactive) | 34.2 µM (inactive) | 86.1 µM (inactive) | > 100 µM (inactive) | 50.8 µM (inactive) | 72.9 µM (inactive) | 81.7 µM (inactive) | 51.3 µM (inactive) | 31.1 µM (inactive) | > 100 µM (inactive) | 62.8 µM (inactive) | 43.2 µM (inactive) | 16.6 | 71.6 µM (inactive) | 28.2 µM (inactive) |  |
| O=C(Nc1cccc(C(F)(F)F)c1)c1cc(Br)cc(Br)c1O [FLUOROSALAN] | 2.89 µM (inactive) | 3.69 µM (inactive) | 2.9 µM (inactive) | 3.02 µM (inactive) | 4.34 µM (inactive) | 2.81 µM (inactive) | 2.22 µM (inactive) | 3.9 µM (inactive) | 3.24 µM (inactive) | 4.25 µM (inactive) | 3 µM (inactive) | 2.19 µM (inactive) | 2.62 µM (inactive) | 2.35 µM (inactive) | 4.5 | 3.2 µM (inactive) | 3.68 µM (inactive) |  |

Source: ChEMBL document CHEMBL1201862, “PubChem BioAssay data set” (2004)
